{"source": "ChEMBL document CHEMBL4622963", "about": "“Optimization of Nicotinamides as Potent and Selective IRAK4 Inhibitors with Efficacy in a Murine Model of Psoriasis” (ACS Med Chem Lett, 2020)", "key": {"[1]": {"target": "T1, Interleukin-1 receptor-associated kinase 4 (Mus musculus) (UniProt Q8R4K2)", "T1 sequence (whole entry)": "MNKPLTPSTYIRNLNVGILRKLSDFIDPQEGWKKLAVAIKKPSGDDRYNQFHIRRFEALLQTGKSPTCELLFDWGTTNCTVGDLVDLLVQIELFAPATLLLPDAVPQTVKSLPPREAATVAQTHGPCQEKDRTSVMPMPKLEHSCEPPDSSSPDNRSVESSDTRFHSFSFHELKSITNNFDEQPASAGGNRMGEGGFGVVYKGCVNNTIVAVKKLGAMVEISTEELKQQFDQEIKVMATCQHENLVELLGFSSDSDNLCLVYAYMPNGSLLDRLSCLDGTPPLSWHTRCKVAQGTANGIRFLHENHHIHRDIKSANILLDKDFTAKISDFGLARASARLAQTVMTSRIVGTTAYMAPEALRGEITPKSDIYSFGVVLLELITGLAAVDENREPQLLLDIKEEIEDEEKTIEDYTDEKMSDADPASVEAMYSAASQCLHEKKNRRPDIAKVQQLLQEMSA", "experiment": "In vivo Inhibition of IRAK4 in LTA-treated BALB/c mouse assessed as suppression of IL-6 level in serum at 0.3 mg/kg by ELISA relative to control", "type": "functional, organism-based"}, "[2]": {"experiment": "Drug uptake in imiquimod-induced C57BL/6 mouse model of psoriasis at 3 mg/kg, po dosed via gavage twice daily and measured after 2 hrs by LC-MS analysis", "type": "ADME, organism-based", "details": "in vivo, read-out: Drug uptake"}, "[3]": {"tested_on": "Mus musculus", "experiment": "Protection against po dosed imiquimod-induced psoriasis in C57BL/6 mouse assessed as reduction in clinical signs of psoriasis administered via gavage twice daily and measured on day 6", "type": "functional, organism-based"}, "[4]": {"organism": "Mus musculus", "experiment": "animal or person", "details": "C57BL/6, po, 144 h, read-out: INH"}, "[5]": {"organism": "Homo sapiens", "experiment": "Selectivity index, ratio of IC50 for N-terminal His6-tagged human full length recombinant LCK expressed in baculovirus infected Sf21 cells to IC50 for IRAK4 (unknown origin)"}, "[6]": {"target": "T2, Interleukin-1 receptor-associated kinase 4 (Homo sapiens, UniProt Q9NWZ3)", "T2 sequence (Q9NWZ3 whole entry)": "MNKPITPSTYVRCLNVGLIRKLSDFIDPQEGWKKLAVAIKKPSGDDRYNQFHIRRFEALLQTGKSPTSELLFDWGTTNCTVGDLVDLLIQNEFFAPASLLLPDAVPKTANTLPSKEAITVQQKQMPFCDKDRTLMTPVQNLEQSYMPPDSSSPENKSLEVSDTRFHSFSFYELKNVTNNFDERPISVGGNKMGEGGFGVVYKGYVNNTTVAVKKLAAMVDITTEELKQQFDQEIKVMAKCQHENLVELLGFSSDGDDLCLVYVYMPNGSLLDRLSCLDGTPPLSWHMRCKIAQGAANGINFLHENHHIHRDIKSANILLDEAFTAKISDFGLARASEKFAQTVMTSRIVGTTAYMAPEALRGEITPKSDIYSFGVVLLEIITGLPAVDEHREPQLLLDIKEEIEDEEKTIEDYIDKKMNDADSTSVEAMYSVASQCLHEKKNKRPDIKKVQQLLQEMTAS", "experiment": "Inhibition of IRAK4 in human whole blood assessed as inhibition of LTA-induced IL-6 production preincubated for 30 mins followed by LTA-stimulation and measured after 5 hrs by ELISA", "type": "tissue-based"}, "[7]": {"target": "T3, Tyrosine-protein kinase receptor TYRO3 (Homo sapiens, UniProt Q06418)", "T3 sequence (Q06418 whole entry)": "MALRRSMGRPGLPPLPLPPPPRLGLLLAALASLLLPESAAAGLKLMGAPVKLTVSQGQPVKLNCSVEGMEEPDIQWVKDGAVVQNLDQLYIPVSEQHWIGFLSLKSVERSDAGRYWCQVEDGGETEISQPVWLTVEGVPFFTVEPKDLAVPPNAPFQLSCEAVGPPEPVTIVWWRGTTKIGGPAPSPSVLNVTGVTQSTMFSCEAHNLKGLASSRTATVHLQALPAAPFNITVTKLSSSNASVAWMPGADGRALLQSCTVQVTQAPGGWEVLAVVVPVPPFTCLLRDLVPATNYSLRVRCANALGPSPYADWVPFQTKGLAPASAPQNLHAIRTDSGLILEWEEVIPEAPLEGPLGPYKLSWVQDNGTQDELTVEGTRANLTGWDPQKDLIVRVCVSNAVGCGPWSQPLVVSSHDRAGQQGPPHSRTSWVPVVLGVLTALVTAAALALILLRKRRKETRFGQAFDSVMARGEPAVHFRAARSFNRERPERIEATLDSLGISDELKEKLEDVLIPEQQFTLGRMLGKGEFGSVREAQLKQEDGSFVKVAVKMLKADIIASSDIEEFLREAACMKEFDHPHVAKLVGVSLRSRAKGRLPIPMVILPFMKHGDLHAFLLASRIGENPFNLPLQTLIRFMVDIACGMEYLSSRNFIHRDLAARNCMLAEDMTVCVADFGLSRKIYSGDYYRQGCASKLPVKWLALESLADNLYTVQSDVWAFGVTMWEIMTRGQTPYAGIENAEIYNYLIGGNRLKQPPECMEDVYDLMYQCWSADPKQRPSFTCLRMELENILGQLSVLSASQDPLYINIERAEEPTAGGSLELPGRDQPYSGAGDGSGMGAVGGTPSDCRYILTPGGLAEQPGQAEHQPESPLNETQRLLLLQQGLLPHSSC", "experiment": "Inhibition of human wild type partial length TYRO3 (497 to 814 residues) expressed in bacterial expression system"}, "[8]": {"target": "T1, Interleukin-1 receptor-associated kinase 4 (Mus musculus)", "experiment": "In vivo Inhibition of IRAK4 in LTA-treated BALB/c mouse assessed as suppression of IL-6 level in serum at 3 mg/kg by ELISA relative to control", "type": "functional, organism-based"}, "[9]": {"organism": "Mus musculus", "experiment": "animal or person", "details": "C57BL/6, po, 144 h, read-out: INH", "remark": "listed apart in the source"}, "[10]": {"experiment": "Drug uptake in imiquimod-induced C57BL/6 mouse model of psoriasis at 10 mg/kg, po dosed via gavage twice daily and measured after 2 hrs by LC-MS analysis", "type": "ADME, organism-based", "details": "in vivo, read-out: Drug uptake"}, "[11]": {"organism": "Homo sapiens", "experiment": "Selectivity index, ratio of IC50 for recombinant N-terminal GST-tagged human cKit (544 to end residues) expressed in baculovirus infected Sf21 cells to IC50 for IRAK4 (unknown origin)"}, "[12]": {"organism": "Mus musculus", "experiment": "animal or person", "details": "C57BL/6, po, 144 h, read-out: INH", "remark": "listed apart in the source"}, "[13]": {"experiment": "Drug uptake in imiquimod-induced C57BL/6 mouse model of psoriasis at 1 mg/kg, po dosed via gavage twice daily and measured after 2 hrs by LC-MS analysis", "type": "ADME, organism-based", "details": "in vivo, read-out: Drug uptake"}, "[14]": {"experiment": "Toxicity in po dosed imiquimod-induced C57BL/6 mouse model of psoriasis assessed as drug tolerability", "type": "organism-based", "details": "in vivo"}, "[15]": {"experiment": "Half life in mouse at 2 mg/kg, iv administered as infusion or 5 mg/kg, po via gavage measured up to 24 hrs by LC-MS analysis", "type": "ADME, organism-based", "details": "in vivo"}, "[16]": {"target": "T2, Interleukin-1 receptor-associated kinase 4", "experiment": "Inhibition of IRAK4 in human PBMC assessed as inhibition of LTA-induced IL-6 production preincubated for 30 mins followed by LTA-stimulation and measured after 5 hrs by ELISA", "type": "cell-based"}}}
{"smiles": "CC(C)Nc1cc(Nc2nc3ccnn3cc2F)ncc1C(=O)NC[C@@H](F)C(C)(C)O", "values": [{"measurement": "inhibition", "setting": "[1]", "result": 72, "unit": "%"}, {"measurement": "concentration at 2 h", "setting": "[2]", "result": 1950, "unit": "nM"}, {"measurement": "Activity", "setting": "[3]", "result": "Dose-dependent effect"}, {"measurement": "inhibition in vivo at 3 mg/kg", "setting": "[4]", "result": 41, "unit": "%"}, {"measurement": "Ratio IC50", "setting": "[5]", "result": "> 590"}, {"measurement": "IC50", "setting": "[6]", "result": 920, "unit": "nM"}, {"measurement": "IC50", "setting": "[7]", "result": 980, "unit": "nM"}, {"measurement": "inhibition", "setting": "[8]", "result": 87, "unit": "%"}, {"measurement": "inhibition in vivo at 3 mg/kg", "setting": "[9]", "result": 30, "unit": "%"}, {"measurement": "concentration at 2 h", "setting": "[10]", "result": 9400, "unit": "nM"}, {"measurement": "Ratio IC50", "setting": "[11]", "result": "> 590"}, {"measurement": "inhibition in vivo at 10 mg/kg", "setting": "[12]", "result": 43, "unit": "%"}, {"measurement": "concentration at 2 h", "setting": "[13]", "result": 400, "unit": "nM"}, {"measurement": "Activity", "setting": "[14]", "result": "Non-Toxic"}, {"measurement": "half-life", "setting": "[15]", "result": 1.4, "unit": "h"}, {"measurement": "IC50", "setting": "[16]", "result": 370, "unit": "nM"}]}
